Consider 16 compounds from patent publication US11999727B2 (Tango Therapeutics, Inc., priority 2020, dated 2024).

Structures are written as SMILES.

Assay [1] concerns HAP1 MTAP-intact cell line. In words: SDMA in-cell western assay, HAP1 MTAP-intact. In kind it is cell-based. To be noted: Homo sapiens, HAP1, SDMA in-cell western, HAP1 MTAP-intact; read-out: MTAP HAP1 intact IC50. In outline:
(§1)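 MTAP-null vs endogenous-MTAP HAP1 isogenic cells; in-cell western SDMA readout; IC50 per line.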

Assay [2] concerns HAP1 MTAP-deleted cell line. Description: Viability assay, MTAP-deleted cell line. The settings on record: Homo sapiens, read-out: HAP1 MTAP deleted viability. In kind it is cell-based. The text has this:
Table 1 additionally indicates IC50 values in a viability assay for the MTAP-deleted cell line (column 10), indicating the effect of treatment with compound on cell survival.

In assay [3] the target is T1, PRMT5 (Homo sapiens, UniProt O14744).
T1 construct: purchased Viva (custom protein)
Description: PRMT5 biochemical IC50 assay with MTA as cofactor. The settings on record: PRMT5, MTA as cofactor; read-out: MTA IC50.

Assay [4] has as its target T1, PRMT5. Description: PRMT5 biochemical IC50 assay with no cofactor. To be noted: PRMT5, no cofactor. The text has this:
Table 1 indicates IC50 values (μM) against PRMT5 for exemplary compounds in the presence of SAM as cofactor, with no cofactor, and with MTA as cofactor, respectively (columns 4-6). […] Ki values can be calculated from the IC50 values as described in the Examples section. As detailed in the Examples section, for the assay performed in the presence of SAM, IC50=Ki×1.5 (Ki=IC50/1.5).

Assay [5] concerns the target T1, PRMT5. Description: PRMT5 biochemical IC50 assay with SAM as cofactor. The settings on record: PRMT5, SAM as cofactor; read-out: SAM IC50.
Assay [6] concerns HAP1 MTAP-deleted cell line. Description: SDMA in-cell western assay, HAP1 MTAP-deleted. The class given is cell-based. To be noted: for IC50: Homo sapiens, HAP1, SDMA in-cell western, HAP1 MTAP-deleted; for MTAP intact/deleted ratio: IC50 ratio HAP1 MTAP-intact / HAP1 MTAP-deleted, SDMA in-cell western. A digest of the protocol:
as §1

[7] abbreviates: HAP1, viability assay, MTAP-deleted cell line.
Where [8] appears, read: read-out: No Cofactor/ rel IC50.
Where [9] appears, read: read-out: HAP 1 MTAP deleted IC50.
The mark [10] stands for this setting: HAP1, viability, HAP1 MTAP-deleted cell line.
Where [11] appears, read: read-out: HAP1 MTAP deleted IC50.

T1 sequence (O14744 whole entry): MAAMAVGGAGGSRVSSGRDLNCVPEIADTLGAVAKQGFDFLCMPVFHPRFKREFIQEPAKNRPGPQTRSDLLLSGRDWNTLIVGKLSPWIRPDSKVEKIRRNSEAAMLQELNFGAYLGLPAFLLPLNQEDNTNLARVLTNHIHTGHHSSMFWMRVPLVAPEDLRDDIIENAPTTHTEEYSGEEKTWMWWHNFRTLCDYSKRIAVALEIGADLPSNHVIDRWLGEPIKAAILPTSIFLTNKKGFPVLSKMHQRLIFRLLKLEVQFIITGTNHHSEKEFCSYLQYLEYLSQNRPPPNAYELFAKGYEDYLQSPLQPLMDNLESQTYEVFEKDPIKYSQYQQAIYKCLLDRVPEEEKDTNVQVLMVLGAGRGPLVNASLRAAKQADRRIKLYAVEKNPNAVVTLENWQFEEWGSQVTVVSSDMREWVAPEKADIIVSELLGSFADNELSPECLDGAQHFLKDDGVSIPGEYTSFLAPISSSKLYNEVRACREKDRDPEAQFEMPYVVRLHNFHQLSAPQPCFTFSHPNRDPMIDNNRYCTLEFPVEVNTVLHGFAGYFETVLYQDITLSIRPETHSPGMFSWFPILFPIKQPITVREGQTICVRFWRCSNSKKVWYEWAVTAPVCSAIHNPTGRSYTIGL
T1 sequence (Q9BQA1 whole entry partner): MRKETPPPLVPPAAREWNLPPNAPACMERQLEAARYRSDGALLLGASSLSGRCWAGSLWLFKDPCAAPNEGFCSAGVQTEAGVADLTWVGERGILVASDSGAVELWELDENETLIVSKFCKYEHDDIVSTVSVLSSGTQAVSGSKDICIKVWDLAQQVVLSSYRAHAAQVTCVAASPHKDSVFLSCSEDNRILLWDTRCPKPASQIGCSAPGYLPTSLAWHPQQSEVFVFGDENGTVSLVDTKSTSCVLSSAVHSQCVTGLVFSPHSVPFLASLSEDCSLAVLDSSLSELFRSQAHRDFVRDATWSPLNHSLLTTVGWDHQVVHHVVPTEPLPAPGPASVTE

For `Cc1cccc([C@H]2CCCCN2C(=O)C(=O)Nc2cnc(N)c(C)c2)c1` (single isomer, unassigned) [Compound 54], the IC50 in assay [1] is more than 1000 nM; in assay [2] (setting [7]) it was 1000 to 10000 nM; on PRMT5 [3], less than 50 nM; on PRMT5 [4] (setting [8]), 50 to 500 nM; at PRMT5 [5], 50 to 500 nM; in assay [6] (setting [9]) it was 100 to 1000 nM. Moreover, the “MTAP intact/deleted ratio” value in assay [6] is “A (an IC50 ratio greater than or equal to 10 fold)”.

For `CCc1cc(NC(=O)C(=O)N2C[C@@H](C)CC[C@@H]2c2ccc3ccc(C4CCN(C)CC4)nc3c2)cnc1N` [Compound 1365, N-(6-amino-5-ethyl-3-pyridyl)-2-oxo-2-[(2R,5S)-5-methyl-2-[2-(1-methyl-4-piperidyl)-7-quinolyl]-1-piperidyl]acetamide], the IC50 in assay [1] was less than 100 nM; in assay [2] (setting [10]) it was less than 1000 nM; at PRMT5 [3], less than 50 nM; at PRMT5 [4] (setting [8]) it was less than 50 nM; at PRMT5 [5], 50 to 500 nM; in assay [6] (setting [9]) it was less than 100 nM. Also, the “MTAP intact/deleted ratio” value in assay [6] is “A (an IC50 ratio greater than or equal to 10 fold)”.

In the case of `C[C@@H]1CC[C@H](c2ccc(N[C@@H]3CCN(C)C3=O)cc2)N(C(=O)C(=O)Nc2cncc(C(N)=O)c2)C1` (racemic) [Compound 427, 5-[[2-[(2R,5R)-5-Methyl-2-[4-[[(3R)-1-methyl-2-oxo-pyrrolidin-3-yl]amino]phenyl]-1-piperidyl]-2-oxo-acetyl]amino]pyridine-3-carboxamide], the IC50 was more than 1000 nM in assay [1]; more than 10000 nM in assay [2] (setting [7]); 50 to 500 nM at PRMT5 [3]; 50 to 500 nM at PRMT5 [4] (read-out: No Cofactor/rel IC50); 50 to 500 nM at PRMT5 [5]; 100 to 1000 nM in assay [6] (setting [11]). In addition, the MTAP intact/deleted ratio entry in assay [6] was “A (an IC50 ratio greater than or equal to 10 fold)”.

On to `Cc1ccc([C@H]2CC(F)(F)[C@H](C)CN2C(=O)C(=O)Nc2cnc(N)c(C)c2)cn1` (single isomer, unassigned) [Compound 973], for which the IC50 is 100 to 1000 nM in assay [1]; 1000 to 10000 nM in assay [2] (setting [7]); less than 50 nM on PRMT5 [3]; 50 to 500 nM on PRMT5 [4] (read-out: No Cofactor/rel IC50); 50 to 500 nM on PRMT5 [5]; less than 100 nM in assay [6] (setting [9]). The MTAP intact/deleted ratio result in assay [6] is “A (an IC50 ratio greater than or equal to 10 fold)”.

For the compound `CCc1cc(NC(=O)C(=O)N2C[C@H](C)CC[C@H]2c2ccc3c(cnn3CCN(C)C)c2)cnc1N` (single isomer, unassigned) [Compound 1374], the IC50 in assay [1] is 100 to 1000 nM; in assay [2] (setting [10]), less than 1000 nM; at PRMT5 [3], less than 50 nM; at PRMT5 [4] (setting [8]), less than 50 nM; at PRMT5 [5] it was 50 to 500 nM; in assay [6] (setting [9]), less than 100 nM. The “MTAP intact/deleted ratio” value in assay [6] was “A (an IC50 ratio greater than or equal to 10 fold)”.

Consider `CCc1cc(NC(=O)C(=O)N2C[C@@H](C)CC[C@@H]2c2ccc3sc(C4CCN(C)C4)nc3c2)cnc1N` (stereo partly drawn) [Compound 1383], for which the IC50 in assay [1] was less than 100 nM; in assay [2] (setting [10]), less than 1000 nM; on PRMT5 [3], less than 50 nM; on PRMT5 [4] (setting [8]), less than 50 nM; on PRMT5 [5] it was less than 50 nM; in assay [6] (setting [9]), less than 100 nM. The “MTAP intact/deleted ratio” value in assay [6] is recorded as “A (an IC50 ratio greater than or equal to 10 fold)”.

Consider `Cc1cncc(NC(=O)C(=O)N2C[C@H](C)CC[C@H]2c2ccc3ccccc3c2)c1` (racemic) [Compound 83, rac-2-((2R,5S)-5-methyl-2-(naphthalen-2-yl)piperidin-1-yl)-N-(5-methylpyridin-3-yl)-2-oxoacetamide], for which the IC50 in assay [1] was more than 1000 nM; in assay [2] (setting [7]), more than 10000 nM; on PRMT5 [3] it was 50 to 500 nM; on PRMT5 [4] (setting [8]), more than 500 nM; on PRMT5 [5], more than 500 nM; in assay [6] (setting [9]) it was more than 1000 nM. The “MTAP intact/deleted ratio” value in assay [6] is recorded as “C (an IC50 ratio of less than 3 fold)”.

Regarding `CCc1cc(NC(=O)C(=O)N2C[C@@H](C)CC[C@@H]2c2ccc(N3CCN(CC)CC3)cc2)cnc1N` (single isomer, unassigned) [Compound 1360], the IC50 in assay [1] is more than 1000 nM; in assay [2] (setting [10]), more than 10000 nM; at PRMT5 [3], more than 500 nM; at PRMT5 [4] (setting [8]), more than 500 nM; at PRMT5 [5], more than 500 nM; in assay [6] (setting [9]), more than 1000 nM.

Regarding `Cc1cc(NC(=O)C(=O)N2C[C@H](C)CC[C@H]2c2ccc(NS(C)(=O)=O)cc2)cnc1N` (single isomer, unassigned) [Compound 499], the IC50 was more than 1000 nM in assay [1]; less than 1000 nM in assay [2] (setting [7]); less than 50 nM at PRMT5 [3]; less than 50 nM on PRMT5 [4] (read-out: No Cofactor/rel IC50); 50 to 500 nM on PRMT5 [5]; 100 to 1000 nM in assay [6] (setting [11]). The MTAP intact/deleted ratio result in assay [6] is recorded as “A (an IC50 ratio greater than or equal to 10 fold)”.

As to `CCc1cc(NC(=O)C(=O)N2C[C@@H](C)CC[C@@H]2c2ccc(NC(C)=O)nc2)cnc1N` (single isomer, unassigned) [Compound 925], the IC50 is 100 to 1000 nM in assay [1]; less than 1000 nM in assay [2] (setting [7]); less than 50 nM at PRMT5 [3]; less than 50 nM at PRMT5 [4] (read-out: No Cofactor/rel IC50); 50 to 500 nM on PRMT5 [5]; less than 100 nM in assay [6] (setting [9]). Also, in assay [6], the MTAP intact/deleted ratio entry is recorded as “A (an IC50 ratio greater than or equal to 10 fold)”.

With `C[C@@H]1CC[C@@H]([C@@H]2CCC(O)C2)N(C(=O)C(=O)Nc2cncc(C(N)=O)c2)C1` (mixture of isomers) [Compound 517, 5-[[2-[(2S,5R)-2-(3-Hydroxycyclopentyl)-5-methyl-1-piperidyl]-2-oxo-acetyl]amino]pyridine-3-carboxamide], the IC50 in assay [1] is more than 1000 nM; in assay [2] (setting [7]), more than 10000 nM; at PRMT5 [3], 50 to 500 nM; at PRMT5 [4] (read-out: No Cofactor/rel IC50) it was more than 500 nM; at PRMT5 [5], more than 500 nM; in assay [6] (setting [11]), more than 1000 nM. In addition, the MTAP intact/deleted ratio result in assay [6] was “C (an IC50 ratio of less than 3 fold)”.

Turning to `Cc1cc(NC(=O)C(=O)N2C[C@H](C)CC[C@H]2c2ccc(N)nc2)cnc1N` (single isomer, unassigned) [Compound 848], the IC50 in assay [1] is 100 to 1000 nM; in assay [2] (HAP1, viability assay, HAP1 MTAP-deleted) it was less than 1000 nM; on PRMT5 [3], less than 50 nM; on PRMT5 [4] (read-out: No Cofactor/rel IC50) it was less than 50 nM; at PRMT5 [5], 50 to 500 nM; in assay [6] (setting [11]) it was less than 100 nM. For the same compound, the MTAP intact/deleted ratio entry in assay [6] was “A (an IC50 ratio greater than or equal to 10 fold)”.

Take `CCc1cc(NC(=O)C(=O)N2CC(C)CCC2c2ccc3sc(C4CCN(C)CC4C)nc3c2)cnc1N` (racemic) [Compound 1373, N-(6-amino-5-ethyl-3-pyridyl)-2-oxo-2-[rac-(2R,5S)-5-methyl-2-[2-[rac-(3S,4S)-1,3-dimethyl-4-piperidyl]-1,3-benzothiazol-5-yl]-1-piperidyl]acetamide]: the IC50 in assay [1] is less than 100 nM; in assay [2] (setting [10]) it was less than 1000 nM; on PRMT5 [3], less than 50 nM; on PRMT5 [4] (setting [8]) it was less than 50 nM; at PRMT5 [5], less than 50 nM; in assay [6] (setting [9]), less than 100 nM. Further, in assay [6], the “MTAP intact/deleted ratio” value was “B (an IC50 ratio greater than or equal to 3 fold but lower than 10 fold)”.

Turning to `NC(=O)c1cc(NC(=O)C(=O)N2CCCCC2c2ccccc2)cnc1N` (stereo not drawn) [Compound 126, 2-Amino-5-[[2-oxo-2-(2-phenyl-1-piperidyl)acetyl]amino]pyridine-3-carboxamide], the IC50 is more than 1000 nM in assay [1]; more than 10000 nM in assay [2] (setting [7]); 50 to 500 nM on PRMT5 [3]; more than 500 nM on PRMT5 [4] (setting [8]); 50 to 500 nM on PRMT5 [5]; more than 1000 nM in assay [6] (setting [9]). The “MTAP intact/deleted ratio” value in assay [6] was “B (an IC50 ratio greater than or equal to 3 fold but lower than 10 fold)”.

As for `NC(=O)c1cncc(NC(=O)C(=O)N2C[C@@H](CC(F)(F)F)CC[C@H]2c2ccccc2)c1` (racemic) [Compound 318, 5-[[2-Oxo-2-[(2R,5S)-2-phenyl-5-(2,2,2-trifluoroethyl)-1-piperidyl]acetyl]amino]pyridine-3-carboxamide], the IC50 was more than 1000 nM in assay [1]; more than 10000 nM in assay [2] (setting [7]); 50 to 500 nM at PRMT5 [3]; more than 500 nM on PRMT5 [4] (read-out: No Cofactor/rel IC50); more than 500 nM on PRMT5 [5]; more than 1000 nM in assay [6] (setting [11]). In addition, in assay [6], the MTAP intact/deleted ratio entry is “C (an IC50 ratio of less than 3 fold)”.

`NC(=O)c1cncc(NC(=O)C(=O)N2C[C@@H](O)CC[C@@H]2c2ccccc2)c1` (racemic) [Compound 349, 5-[[2-[(2R,5S)-5-Hydroxy-2-phenyl-1-piperidyl]-2-oxo-acetyl]amino]pyridine-3-carboxamide]: the IC50 was more than 1000 nM in assay [1]; more than 10000 nM in assay [2] (setting [7]); 50 to 500 nM on PRMT5 [3]; more than 500 nM at PRMT5 [4] (read-out: No Cofactor/rel IC50); more than 500 nM on PRMT5 [5]; more than 1000 nM in assay [6] (setting [11]). Further, in assay [6], the MTAP intact/deleted ratio entry is recorded as “C* (an IC50 ratio of less than 3 fold)”.
